Where two headings read alike, the source gives them in different places.
Key:
log P = type: physicochemical
[1] = Clearance (CL) / pharmacokinetics; type: in vivo, mice; details: for clearance: mouse, plasma, iv
Experimental: (§1) Exemplary compounds of the presently-disclosed subject matter were assessed for activity, including clearance, potency, and selectivity. Results from studies are compiled in Tables 2-4.
(§2) Desirable clearance was identified at lower values of mL hr^−1kg^−1 (e.g., about ≤10 mL hr^−1 kg^−1), desirable potency was identified at lower values of IC50 (e.g., about ≤10 nM in TC32 cells), and desired selectivity was identified at higher ratios of IC50 in PC3/IC50 in TC32 (e.g. about >10).
Pharmacokinetics of exemplary compounds of the presently-disclosed subject matter were studied in mice following bolus IV dosing. Groups of three mice were administered the compound(s) and blood samples were collected via saphenous bleed. Plasma was separated by centrifugation and extracted to quantitate analytes by LC/MS/MS. Sample analysis followed upon the system meeting system suitability criteria customary for fit for purpose analytical methods. FIG. 1A includes data comparing YL-C09 to mithramycin (MTM) dosed separately. FIG. 1B includes data for YL-B171, YL-C110 and MTM dosed in cassette format.

TC32 cells = assay: Potency IC50 in TC32 cells and selectivity; type: cell-based; details: Homo sapiens
Experimental: as §1, §2

PC3 [2] = assay: IC50 in PC3 cells; type: cell-based; details: head prints PC2, text PC3
Experimental: as §1, §2

TC32 = assay: Cytotoxicity, resazurin fluorescence, TC32; type: cell-based; details: Homo sapiens, TC-32, 72 h, read-out: GI50 TC32, Table 5
Experimental: (§3) Exemplary compounds of the presently-disclosed subject matter were assessed for cytotoxicity (Table 5) in Ewing sarcoma (TC32) and non-Ewing (PC3 prostate cancer). […] Cells (1000-5000/well) were seeded in 96-well plates and allowed to attach and grow for 24 hr prior to adding compounds in half-log increments from 0.3 nM-10 μM. Cell viability was assessed after 72 hr continuous incubation with compounds using resazurin fluorescence. GI50 values were estimated using GraphPad Prism.

PC3 [3] = assay: Cytotoxicity, resazurin fluorescence, PC3; type: cell-based; details: for GI50: Homo sapiens, PC-3, 72 h, read-out: GI50 PC3, Table 5; for GI50 PC3: Table 5, 72 hr
Experimental: as §3

[4] = TC-32, Table 2, read-out: IC50 TC32
[5] = TC-32, Table 4, read-out: IC50 TC32
[6] = Homo sapiens, PC-3, read-out: IC50 PC2, Table 2
[7] = Homo sapiens, PC-3, read-out: IC50 PC2, Table 4
[8] = TC-32, Table 3, read-out: IC50 TC32
[9] = Homo sapiens, PC-3, read-out: IC50 PC2, Table 3

SMILES | logP (log P; Table 2) | CL ([1]; Table 4) [mL/min/kg] | PK Improvement ([1]; Table 4) | clearance ([1]; Table 2) [mL/min/kg] | IC50 (TC32 cells; [4]) [nM] | IC50 (PC3 [2]; [6]) [nM] | CL ([1]; Table 3) [mL/min/kg] | GI50 (TC32) [nM] | GI50 (PC3 [3]) [nM] | also measured
CO[C@H](C(=NOCCNC(=O)c1cc2cc(Cl)ccc2[nH]1)[C@@H](O)[C@@H](C)O)[C@@H]1Cc2cc3cc(O[C@H]4C[C@@H](O[C@H]5C[C@@H](O)[C@H](O)[C@@H](C)O5)[C@H](O)[C@@H](C)O4)c(C)c(O)c3c(O)c2C(=O)[C@H]1O[C@H]1C[C@@H](O[C@H]2C[C@@H](O[C@H]3C[C@](C)(O)[C@H](O)[C@@H](C)O3)[C@@H](O)[C@@H](C)O2)[C@H](O)[C@@H](C)O1 [YL-B152] | 2.19 | 0.733 | 35.9 | 0.733 | 8.34 | 17.6 |  |  |  | logP (log P; Table 4): 2.2; IC50 (TC32 cells; [5]): 8.3 nM; IC50 (PC3 [2]; [7]): 17.6 nM
COC(C(=NOCCNC(=O)c1[nH]c2ccc(Cl)cc2c1-c1ccccc1)C(O)C(C)O)C1Cc2cc3cc(OC4CC(OC5CC(O)C(O)C(C)O5)C(O)C(C)O4)c(C)c(O)c3c(O)c2C(=O)C1OC1CC(OC2CC(OC3CC(C)(O)C(O)C(C)O3)C(O)C(C)O2)C(O)C(C)O1 (stereo not shown) [YL-B176] | 3.49 | 0.35 | 75.1 | 0.35 | 13.9 | 178 | 0.35 | 117 | 304 | logP (log P; Table 3): 3.49; logP (log P; Table 4): 3.5; IC50 (TC32 cells; [8]): 13.9 nM; IC50 (TC32 cells; [5]): 13.9 nM; IC50 (PC3 [2]; [9]): 178 nM; IC50 (PC3 [2]; [7]): 178 nM
COC(C(=NOCc1[nH]c2ccc(Cl)cc2c1-c1ccccc1)C(O)C(C)O)C1Cc2cc3cc(OC4CC(OC5CC(O)C(O)C(C)O5)C(O)C(C)O4)c(C)c(O)c3c(O)c2C(=O)C1OC1CC(OC2CC(OC3CC(C)(O)C(O)C(C)O3)C(O)C(C)O2)C(O)C(C)O1 (stereo not shown) [YL-C51] | 4.19 |  |  | 0.25 | 456 | 2790 |  | > 1000 |  | GI50 PC3 (PC3 [3]): > 1000 nM
COC(C(=NOCCNC(=O)c1[nH]c2ccc(C(F)(F)F)cc2c1-c1ccccc1)C(O)C(C)O)C1Cc2cc3cc(OC4CC(OC5CC(O)C(O)C(C)O5)C(O)C(C)O4)c(C)c(O)c3c(O)c2C(=O)C1OC1CC(OC2CC(OC3CC(C)(O)C(O)C(C)O3)C(O)C(C)O2)C(O)C(C)O1 (stereo not shown) [YL-C66] |  | 0.2 | 131.5 |  |  |  | 0.2 |  |  | log P (log P; Table 3): 3.84; log P (log P; Table 4): 3.8; IC50 (PC3 [2]; Table 3): 283 nM
CO[C@H](C(=NOCCNC(=O)c1[nH]c2ccc(C(F)(F)F)cc2c1-c1ccc(Cl)cc1)[C@@H](O)[C@@H](C)O)[C@@H]1Cc2cc3cc(O[C@H]4C[C@@H](O[C@H]5C[C@@H](O)[C@H](O)[C@@H](C)O5)[C@H](O)[C@@H](C)O4)c(C)c(O)c3c(O)c2C(=O)[C@H]1O[C@H]1C[C@@H](O[C@H]2C[C@@H](O[C@H]3C[C@](C)(O)[C@H](O)[C@@H](C)O3)[C@@H](O)[C@@H](C)O2)[C@H](O)[C@@H](C)O1 [YL-C67] |  | 0.167 | 157.8 |  |  |  | 0.167 |  |  | log P (log P; Table 2): 4.56; log P (log P; Table 3): 4.56; log P (log P; Table 4): 4.6; CL ([1]; Table 2): 0.167 mL/min/kg; IC50 (PC3 [2]; Table 3): 1230 nM; GI50 PC3 (PC3 [3]): > 1000 nM
CO[C@H](C(=NOCCNC(=O)c1[nH]c2ccc(C(F)(F)F)cc2c1-c1ccc(F)c(Cl)c1)[C@@H](O)[C@@H](C)O)[C@@H]1Cc2cc3cc(O[C@H]4C[C@@H](O[C@H]5C[C@@H](O)[C@H](O)[C@@H](C)O5)[C@H](O)[C@@H](C)O4)c(C)c(O)c3c(O)c2C(=O)[C@H]1O[C@H]1C[C@@H](O[C@H]2C[C@@H](O[C@H]3C[C@](C)(O)[C@H](O)[C@@H](C)O3)[C@@H](O)[C@@H](C)O2)[C@H](O)[C@@H](C)O1 [YL-C68] |  |  |  |  |  |  |  |  |  | log P (log P; Table 3): 4.54; GI50 PC3 (PC3 [3]): > 1000 nM
CO[C@H](C(=NOCCNC(=O)c1[nH]c2ccc(Cl)cc2c1-c1ccc(Cl)cc1)[C@@H](O)[C@@H](C)O)[C@@H]1Cc2cc3cc(O[C@H]4C[C@@H](O[C@H]5C[C@@H](O)[C@H](O)[C@@H](C)O5)[C@H](O)[C@@H](C)O4)c(C)c(O)c3c(O)c2C(=O)[C@H]1O[C@H]1C[C@@H](O[C@H]2C[C@@H](O[C@H]3C[C@](C)(O)[C@H](O)[C@@H](C)O3)[C@@H](O)[C@@H](C)O2)[C@H](O)[C@@H](C)O1 [YL-C82] | 4.21 | 0.383 | 68.6 | 0.383 | 20.2 | 515 | 0.383 | 356 | 805 | logP (log P; Table 3): 4.21; logP (log P; Table 4): 4.2; IC50 (TC32 cells; [5]): 20.2 nM; IC50 (TC32 cells; TC-32, read-out: IC50 TC32, Table 3): 12 nM; IC50 (PC3 [2]; [9]): 218 nM; IC50 (PC3 [2]; [7]): 515 nM
COC(C(=NOCCCNC(=O)c1[nH]c2ccc(Cl)cc2c1-c1ccc(Cl)cc1)C(O)C(C)O)C1Cc2cc3cc(OC4CC(OC5CC(O)C(O)C(C)O5)C(O)C(C)O4)c(C)c(O)c3c(O)c2C(=O)C1OC1CC(OC2CC(OC3CC(C)(O)C(O)C(C)O3)C(O)C(C)O2)C(O)C(C)O1 (stereo not shown) [YL-C95] |  |  |  |  |  |  |  |  |  | log P (log P; Table 2): 4.69; CL ([1]; Table 2): 0.433 mL/min/kg; GI50 PC3 (PC3 [3]): > 1000 nM
CO[C@H](C(=NOCCNC(=O)c1[nH]c2ccc(Cl)cc2c1-c1cnn(C)c1)[C@@H](O)[C@@H](C)O)[C@@H]1Cc2cc3cc(O[C@H]4C[C@@H](O[C@H]5C[C@@H](O)[C@H](O)[C@@H](C)O5)[C@H](O)[C@@H](C)O4)c(C)c(O)c3c(O)c2C(=O)[C@H]1O[C@H]1C[C@@H](O[C@H]2C[C@@H](O[C@H]3C[C@](C)(O)[C@H](O)[C@@H](C)O3)[C@@H](O)[C@@H](C)O2)[C@H](O)[C@@H](C)O1 [YL-C102] | 2.26 |  |  |  | 7.4 | 43 |  | 49 | 334 | 
COC(C(=NOCCNC(=O)c1[nH]c2ccc(Cl)cc2c1-c1ccnn1C)C(O)C(C)O)C1Cc2cc3cc(OC4CC(OC5CC(O)C(O)C(C)O5)C(O)C(C)O4)c(C)c(O)c3c(O)c2C(=O)C1OC1CC(OC2CC(OC3CC(C)(O)C(O)C(C)O3)C(O)C(C)O2)C(O)C(C)O1 (stereo not shown) [YL-C104] | 1.77 |  |  | 0.517 | 5.63 | 23 |  | 34 | 133 | 
COC(C(=NOCCNC(=O)c1[nH]c2ccc(Cl)cc2c1-c1cccs1)C(O)C(C)O)C1Cc2cc3cc(OC4CC(OC5CC(O)C(O)C(C)O5)C(O)C(C)O4)c(C)c(O)c3c(O)c2C(=O)C1OC1CC(OC2CC(OC3CC(C)(O)C(O)C(C)O3)C(O)C(C)O2)C(O)C(C)O1 (stereo not shown) [YL-C106] | 3.3 | 0.317 | 83.1 | 0.317 | 17.2 | 202 | 0.317 | 99 | 236 | logP (log P; Table 3): 3.3; logP (log P; Table 4): 3.3; IC50 (TC32 cells; [8]): 17 nM; IC50 (TC32 cells; [5]): 17.2 nM; IC50 (PC3 [2]; [9]): 202 nM; IC50 (PC3 [2]; [7]): 202 nM
CO[C@H](C(=NOCCNC(=O)c1[nH]c2ccc(Cl)cc2c1-c1cnoc1)[C@@H](O)[C@@H](C)O)[C@@H]1Cc2cc3cc(O[C@H]4C[C@@H](O[C@H]5C[C@@H](O)[C@H](O)[C@@H](C)O5)[C@H](O)[C@@H](C)O4)c(C)c(O)c3c(O)c2C(=O)[C@H]1O[C@H]1C[C@@H](O[C@H]2C[C@@H](O[C@H]3C[C@](C)(O)[C@H](O)[C@@H](C)O3)[C@@H](O)[C@@H](C)O2)[C@H](O)[C@@H](C)O1 [YL-C108] | 1.44 |  |  | 0.4 | 6.12 | 40.3 |  | 34 | 126 | 
CO[C@H](C(=NOCCNC(=O)c1[nH]c2ccc(F)cc2c1-c1ccc(Cl)cc1)[C@@H](O)[C@@H](C)O)[C@@H]1Cc2cc3cc(O[C@H]4C[C@@H](O[C@H]5C[C@@H](O)[C@H](O)[C@@H](C)O5)[C@H](O)[C@@H](C)O4)c(C)c(O)c3c(O)c2C(=O)[C@H]1O[C@H]1C[C@@H](O[C@H]2C[C@@H](O[C@H]3C[C@](C)(O)[C@H](O)[C@@H](C)O3)[C@@H](O)[C@@H](C)O2)[C@H](O)[C@@H](C)O1 [YL-C118] | 3.64 |  |  | 0.467 | 36.6 | 582 |  | 232 | 417 | 
COC(C(=NOCCNC(=O)c1[nH]c2ccc(O)cc2c1-c1ccc(Cl)cc1)C(O)C(C)O)C1Cc2cc3cc(OC4CC(OC5CC(O)C(O)C(C)O5)C(O)C(C)O4)c(C)c(O)c3c(O)c2C(=O)C1OC1CC(OC2CC(OC3CC(C)(O)C(O)C(C)O3)C(O)C(C)O2)C(O)C(C)O1 (stereo not shown) [YL-C120] | 3.04 |  |  | 0.417 | 7.6 | 31.4 |  | 36 | 66 | 

Reference: patent publication US20260297121A1, “MITHRAMYCIN (MTM) 2’ OXIMES” (University of Kentucky Research Foundation, priority 2023, published 2026)
